Assay results taken from patent US20240287042A1, “NOVEL COMPOUND HAVING INHIBITORY ACTIVITY AGAINST PENDRIN, AND PHARMACEUTICAL USES THEREOF” (UIF (University Industry Foundation), Yonsei University, priority 2021, published 2024).
pIC50: −log10 of the molar value.

Key:
[1] = biological target: T1, human wild-type (WT)-SLC26A3 (Homo sapiens, UniProt P40879); assay: SLC26A3 Cl−/I− exchange activity, YFP fluorescence in LN-215 cells; assay type: cell-based; settings: for pIC50: LN-215-YFP cells, FIG. 2, read-out: IC50 of Cl−/I− anion exchange by SLC26A3
T1 construct: expressed in transfected cells
T1 sequence (P40879 1-764): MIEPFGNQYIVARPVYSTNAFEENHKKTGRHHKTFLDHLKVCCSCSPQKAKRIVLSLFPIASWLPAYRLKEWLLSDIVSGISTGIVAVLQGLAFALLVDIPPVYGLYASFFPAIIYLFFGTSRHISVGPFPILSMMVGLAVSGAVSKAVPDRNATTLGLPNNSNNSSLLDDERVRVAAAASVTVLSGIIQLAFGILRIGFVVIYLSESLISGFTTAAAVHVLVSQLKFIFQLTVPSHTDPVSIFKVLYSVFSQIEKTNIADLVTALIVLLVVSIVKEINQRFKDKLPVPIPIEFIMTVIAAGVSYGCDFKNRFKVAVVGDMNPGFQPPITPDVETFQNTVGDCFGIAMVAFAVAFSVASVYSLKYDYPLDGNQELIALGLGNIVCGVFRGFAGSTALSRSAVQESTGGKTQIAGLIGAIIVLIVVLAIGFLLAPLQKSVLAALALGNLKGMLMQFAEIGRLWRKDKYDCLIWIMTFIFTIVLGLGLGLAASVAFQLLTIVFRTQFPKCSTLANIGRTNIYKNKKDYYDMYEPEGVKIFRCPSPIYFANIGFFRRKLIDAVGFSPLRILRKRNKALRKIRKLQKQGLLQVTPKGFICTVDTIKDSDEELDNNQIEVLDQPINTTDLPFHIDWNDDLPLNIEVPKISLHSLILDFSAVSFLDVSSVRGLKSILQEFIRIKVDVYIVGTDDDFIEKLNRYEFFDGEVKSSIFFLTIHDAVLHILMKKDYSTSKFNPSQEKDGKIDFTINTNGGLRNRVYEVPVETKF
Procedure: LN-215 cells were cultured in DMEM medium containing 10% fetal bovine serum (FBS), 100 units/ml of penicillin and 100 μg/ml streptomycin. LN-215 cells were stably transfected with pcDNA3.1 encoding the halide sensor YFP-H148Q/I152L/F46L and human wild-type (WT)-SLC26A3.
LN-215 cells expressing human WT SLC26A3 and YFP-F46L/H148Q/I152L were plated in 96-well microplates at a density of 2×10^4 cells per well, and cultured for 48 hours. Each well of the cell cultured 96-well plate was washed 2 times with 200 μL of PBS, and filled with 50 μL of HEPES buffered solution (140 mM NaCl, 5 mM KCl, 1 mM MgCl2, 1 mM CaCl2), 10 mM glucose and 10 mM HEPES (pH 7.4)). Test compounds (1 μL) were added to a final concentration of 100 μM. After culturing at 37° C. for 10 minutes, the 96-well plate was located on the FLUOstar Omega Microplate Reader (BMG Labtech, Ortenberg, Germany) for a fluorescence assay. Fluorescence was recorded continuously (400 ms per point) for 1 second (baseline), whereby each well was assayed individually for SLC26A3-mediated I-influx. Then, 50 μL of NaI-substituted HEPES buffered solution (replacing NaCl with NaI) was added using a liquid injector at 1 second, and YFP fluorescence was recorded for 5 seconds. The initial iodide influx rate was determined from the initial slope of fluorescence by nonlinear regression, after the injection of iodide.
In the case of SLC26A3 and SLC26A6, each transporter protein and halide sensitive YFP were expressed in LN-215 cells to measure the activity of the transporter protein.
Other details were carried out in the same manner as Example 5.

human WT CFTR = biological target: T2, human WT CFTR (Homo sapiens, UniProt P13569); assay: CFTR I− transport activity, YFP fluorescence, forskolin-activated; assay type: cell-based; settings: for Effect on CFTR activity: 100 μM
T2 construct: expressed in transfected cells
T2 sequence (P13569 whole entry): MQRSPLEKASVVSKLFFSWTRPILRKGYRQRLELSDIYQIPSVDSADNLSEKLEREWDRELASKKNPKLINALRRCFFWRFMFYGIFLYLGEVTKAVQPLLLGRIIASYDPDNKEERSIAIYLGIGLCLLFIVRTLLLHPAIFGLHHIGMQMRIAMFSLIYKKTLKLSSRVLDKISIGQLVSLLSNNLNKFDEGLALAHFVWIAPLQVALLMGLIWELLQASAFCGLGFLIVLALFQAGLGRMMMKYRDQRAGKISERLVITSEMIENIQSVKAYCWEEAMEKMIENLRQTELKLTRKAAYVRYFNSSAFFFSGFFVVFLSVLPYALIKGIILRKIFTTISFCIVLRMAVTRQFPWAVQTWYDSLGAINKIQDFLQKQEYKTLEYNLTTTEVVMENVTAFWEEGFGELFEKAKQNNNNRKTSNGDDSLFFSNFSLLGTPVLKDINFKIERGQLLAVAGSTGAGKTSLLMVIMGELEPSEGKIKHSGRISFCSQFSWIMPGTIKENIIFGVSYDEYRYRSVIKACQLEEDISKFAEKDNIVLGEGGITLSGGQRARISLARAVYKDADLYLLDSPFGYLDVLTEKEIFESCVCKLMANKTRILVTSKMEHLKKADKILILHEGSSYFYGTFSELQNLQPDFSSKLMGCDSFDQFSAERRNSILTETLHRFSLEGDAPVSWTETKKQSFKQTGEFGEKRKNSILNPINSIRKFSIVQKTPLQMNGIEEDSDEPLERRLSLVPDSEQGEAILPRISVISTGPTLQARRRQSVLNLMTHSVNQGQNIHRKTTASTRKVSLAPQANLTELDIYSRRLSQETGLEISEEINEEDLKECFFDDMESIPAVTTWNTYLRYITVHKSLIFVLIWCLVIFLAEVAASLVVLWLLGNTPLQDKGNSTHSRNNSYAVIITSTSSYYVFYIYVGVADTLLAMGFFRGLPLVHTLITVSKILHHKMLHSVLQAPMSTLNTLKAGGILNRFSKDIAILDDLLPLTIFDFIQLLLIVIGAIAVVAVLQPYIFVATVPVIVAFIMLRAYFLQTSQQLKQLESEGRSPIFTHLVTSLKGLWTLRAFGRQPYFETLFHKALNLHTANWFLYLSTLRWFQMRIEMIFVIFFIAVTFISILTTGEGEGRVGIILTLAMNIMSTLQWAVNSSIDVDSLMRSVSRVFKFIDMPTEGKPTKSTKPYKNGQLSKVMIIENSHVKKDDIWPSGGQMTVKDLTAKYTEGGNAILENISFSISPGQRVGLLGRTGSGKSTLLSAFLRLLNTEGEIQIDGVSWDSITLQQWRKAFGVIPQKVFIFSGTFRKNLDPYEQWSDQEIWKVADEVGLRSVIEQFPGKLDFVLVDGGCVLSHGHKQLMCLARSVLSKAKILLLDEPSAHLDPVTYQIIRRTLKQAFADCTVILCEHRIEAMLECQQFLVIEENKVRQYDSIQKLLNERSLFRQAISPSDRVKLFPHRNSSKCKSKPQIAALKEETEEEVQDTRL
Procedure: Chinese hamster ovary (CHO)-K1 cells or LN-215 cells were cultured in DMEM medium containing 10% fetal bovine serum (FBS), 100 units/ml of penicillin and 100 μg/ml streptomycin. CHO-K1 cells or LN-215 cells were stably transfected with pcDNA3.1 encoding the halide sensor YFP-H148Q/I152L/F46L and human wild-type (WT)-SLC26A9. Fisher rat thyroid (FRT) cells stably transfected with YFP-H148Q/I152L/F46L and human wild type (WT)-CFTR or human wild type (WT)-ANO1 were cultured in DMEM/F-12 medium containing 10% fetal bovine serum (FBS), 100 units/ml of penicillin, and 100 μg/ml of streptomycin.
LN-215 cells expressing human WT SLC26A9 and YFP-F46L/H148Q/I152L, and FRT cells expressing human WT CFTR or ANO1 and YFP-F46L/H148Q/I152L were plated in 96-well microplates at a density of 2×10^4 cells per well, and cultured for 48 hours. […] After culturing at 37° C. for 10 minutes, the 96-well plate was located on the FLUOstar Omega Microplate Reader (BMG Labtech, Ortenberg, Germany) for a fluorescence assay. For assay of the activity of […], fluorescence was recorded continuously (400 ms per point) for 1 second (baseline), whereby each well was assayed individually for SLC26A9-mediated I-influx. Then, 50 μL of NaI-substituted HEPES buffered solution (replacing NaCl with NaI) was added using a liquid injector at 1 second, and YFP fluorescence was recorded for 6 seconds. For assay of the activity of CFTR, fluorescence was recorded continuously (400 ms per point) for 2 seconds (baseline), whereby each well was assayed individually for CFTR-mediated I^− influx. Then, 50 μL of NaI-substituted HEPES buffered solution (replacing NaCl with NaI) was added using a liquid injector at 2 second, and YFP fluorescence was recorded for 8 seconds. For assay of the activity of ANO1, fluorescence was recorded continuously (400 ms per point) for 1 second (baseline), whereby each well was assayed individually for ANO1-mediated I^− influx. […] The initial iodide influx rate was determined from the initial slope of fluorescence by nonlinear regression, after the injection of iodide. […]

Structure (SMILES): Cc1ccc2[nH]c(C(=O)O)c(CC(=O)N3CCN(c4c(C)cccc4Cl)CC3)c2c1 [YPI-A4948, 3-(2-(4-(2-Chloro-6-methylphenyl)piperazin-1-yl)-2-oxoethyl)-5-methyl-1H-indole-2-carboxylic acid]
- Selectivity for pendrin than SLC26A3 [1]: about 18 times
- pIC50 [1]: 4.94
- Effect on CFTR activity (human WT CFTR; Example 14, CHO-K1 cells, FIG. 16): almost no effect
- Effect on CFTR activity (human WT CFTR; FRT-YFP cells, FIG. 3): almost no effect

Structure (SMILES): Cc1ccc(C)c(N2CCN(C(=O)Cc3c(C(=O)O)[nH]c4ccc(Cl)cc34)CC2)c1 [YPI-H05, 5-chloro-3-(2-(4-(2,5-dimethylphenyl)piperazin-1-yl-)-2-oxoethyl)-1H-indole-2-carboxylic acid]
- pIC50 [1]: 5.42
- inhibition at 100 µM (human WT CFTR; FRT-YFP cells, FIG. 3): ~50%
